The text below walks through data of article PMC6920704, “1-(Piperidin-3-yl)thymine amides as inhibitors of M. tuberculosis thymidylate kinase” (Journal of Enzyme Inhibition and Medicinal Chemistry, 2019).

Structures are written as SMILES.

Assay [1] addresses T1, MtbTMPK (M. tuberculosis thymidylate kinase) (Mycobacterium tuberculosis, UniProt P9WKE1).
T1 construct: gene tmk
Kind of assay: coupled spectrophotometric assay (NADH, […] nm). The assay is classed as biochemical. To be noted: read-out: IC50MtbTMPK.

Assay [2] concerns the target T1, MtbTMPK (M. tuberculosis thymidylate kinase). Briefly: coupled spectrophotometric assay (NADH, […] nm). The assay is classed as biochemical. To be noted: 0.5 mM ATP, 0.05 mM dTMP, 2 mM MgCl2, 50 mM KCl, 50 mM Tris-HCl pH 7.4, 30 °C; unreliable (above the highest tested concentration of 0.12 mM).

T1 sequence (P9WKE1 whole entry, looked up): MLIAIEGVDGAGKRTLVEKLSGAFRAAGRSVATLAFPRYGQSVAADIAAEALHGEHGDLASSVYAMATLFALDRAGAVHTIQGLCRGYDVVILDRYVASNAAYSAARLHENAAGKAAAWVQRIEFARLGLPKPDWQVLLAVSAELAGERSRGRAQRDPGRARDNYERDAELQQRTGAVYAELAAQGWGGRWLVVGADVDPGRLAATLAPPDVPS

Regarding `Cc1cn(C2CCCN(C(=O)c3cccc(Oc4ccc(F)cc4)c3)C2)c(=O)[nH]c1=O` (stereo not drawn) [4d], in assay [1], the IC50 came to 18 ± 1 µM. For the compound `Cc1cn(C2CCCN(C(=O)c3cccc(Oc4cccc(C(F)(F)F)c4)c3)C2)c(=O)[nH]c1=O` (stereo not drawn) [4f], the IC50 in assay [1] is 53 ± 12 µM.

For `Cc1cn(C2CCCN(C(=O)c3cccc(Oc4ccc([N+](=O)[O-])cc4)c3)C2)c(=O)[nH]c1=O` (stereo not drawn) [4e], in assay [1], the IC50 is 30 ± 3 µM.

`Cc1cn(C2CCCN(C(=O)c3cccc(Oc4cc(Cl)cc(Cl)c4)c3)C2)c(=O)[nH]c1=O` (stereo not drawn) [4i]: the IC50 in assay [1] amounted to 13 ± 1 µM. Same read-out and setting: under `Cc1cn(C2CCCN(C(=O)c3cccc(Oc4ccc(Cl)cc4)c3)C2)c(=O)[nH]c1=O` (stereo not drawn) [4c] stands 39 ± 19 µM; under `COc1cccc(Oc2cccc(C(=O)N3CCCC(n4cc(C)c(=O)[nH]c4=O)C3)c2)c1` (stereo not drawn) [4b], 15 ± 1 µM. Same read-out and setting: under `Cc1cn(C2CCCN(C(=O)c3cccc(Oc4ccc(F)c(F)c4)c3)C2)c(=O)[nH]c1=O` (stereo not drawn) [4h] stands 23 ± 1 µM. On the same count and under the same terms, under `Cc1cn(C2CCCN(C(=O)c3cccc(Oc4ccccc4)c3)C2)c(=O)[nH]c1=O` (racemic) [compound 3, 3] stands 28 ± 2 µM. `Cc1cn(C2CCCN(C(=O)c3cccc(Oc4cc(C(F)(F)F)cc(C(F)(F)F)c4)c3)C2)c(=O)[nH]c1=O` (stereo not drawn) [4k]: the “IC50MtbTMPK” value in assay [2] was 158 ± 89 µM. For the compound `Cc1cn(C2CCCN(C(=O)c3cccc(Oc4cccc(N(C)C)c4)c3)C2)c(=O)[nH]c1=O` (stereo not drawn) [4a], the IC50 in assay [1] turned out to be 39 ± 3 µM. The same measure, in the same setting: under `Cc1cn(C2CCCN(C(=O)c3cccc(Oc4cc(F)cc(F)c4)c3)C2)c(=O)[nH]c1=O` (stereo not drawn) [4j] stands 31 ± 2 µM; under `Cc1cn(C2CCCN(C(=O)c3cccc(Oc4ccc(Cl)c(Cl)c4)c3)C2)c(=O)[nH]c1=O` (stereo not drawn) [4g], 18 ± 1 µM.
